Results: patent US20220323379A1, “P62 LIGAND COMPOUND AND ER-PHAGY-PROMOTING USE THEREOF” (PROTECH, INC., priority 2019, published 2022)
Entries after “also recorded” stand apart in the source; their conditions may differ.

Tests used:
BiP, PDI, TRIM13 = test: Immunoblotting of ER proteins under proteotoxic ER stress; type: cell-based, human; details: HeLa, MG132 2 μM 24 h, YOK1104 2.5 μM 4 h; FIG. 5F
Procedure: FIG. 5F illustrates the immunoblotting analysis results of HeLa cells treated with MG132 (2 μM, 24 h), YOK1104 (2.5 μM, 4 h), or both,
(§1) Cell pellets were washed with phosphate-buffered saline (PBS) and lysed in an SDS-based sample buffer (277.8 mM Tris-HCl, pH 6.8, 4.4% LDS, 44.4% (v/v) glycerol) with beta-mercaptoethanol. Alternatively, cell pellets or protein supernatants were lysed in a 5× Laemmli sample buffer (SDS-based sample buffer). Using SDS-PAGE, whole cell lysates were separated and transferred onto polyvinylidene difluoride membranes at 100 V for 2 h at 4° C. Subsequently, the membrane was blocked with 4% skim milk in PBS solution for 30 min at room temperature and incubated overnight with primary antibodies (see Reference Example 4), followed by incubation with host-specific HRP-conjugated secondary antibodies (Jackson laboratory) (1:10000 dilution). For signal detection, a mixture of ECL solution (Thermo Fisher Scientific) was applied onto the membrane and captured using X-ray films.

TRIM13 [1] = test: In vivo oligomerization assay of TRIM13-flag (non-reducing SDS-PAGE); type: cell-based, human; details: HEK293T, MG132 2 μM 24 h, YOK1104 2.5 μM 4 h; FIG. 5L
Procedure: FIG. 4H illustrates the in vivo oligomerization assay results of TRIM13-flag in HEK293T cells treated with HCQ (10 μM, 24 h), tannic acid (30 μM, 24 h), or both,
FIG. 5L illustrates the In vivo oligomerization assay results of TRIM13-flag in HEK293T cells treated with MG132 (2 μM, 24 h) and with or without YOK1104 (2.5 μM, 4 h).
HEK293T cells were transfected with TRIM13-flag using Lipofectamine 2000 and treated with hydroxychloroquine (Sigma) for 24 h. To lyse the cells, the cells were subjected to a cycle of freezing/thawing and centrifuged at 13,000 g for 10 min after 30 min incubation on ice for supernatant collection. Protein concentration was measured using the Pierce BCA Protein Assay Kit (Thermo Fisher Scientific). Next, a non-reducing 4×LDS sample buffer was added to the sample lysate and followed by boiling at 100° C. for 10 min. The samples were loaded on a 3% stacking and 8% separating SDS-PAGE. Immunoblotting assays were performed using an anti-Flag antibody (Sigma) to visualize the oligomeric complexes of TRIM13.

HEK293T cells = test: Transmission electron microscopy of treated cells; type: cell-based, human; details: 2.5 μM, 6 h vs DMSO, FIG. 5E
Procedure: FIG. 5E is a transmission electron microscopy image of HEK293T cells treated with YOK1104 (2.5 μM, 6 h) or DMSO (control), where arrows indicate autolysosomes and asterisks indicate ER fragments inside autolysosomes (scale bars, 500 nm (1st & 2nd column), 200 nm (3rd column)),
For conventional transmission electron microscopy, HEK293T cells were treated with 2.5 μM YOK1104 for 6 h, scraped from culture dish and pelleted by centrifugation. The pellets were resuspended in 2.5% glutaraldeyhyde in 0.1 M sodium cacodylate buffer (pH 7.4) (Electron Microscopy Sciences) for overnight at 4° C. The fixative was replaced by a cacodylate buffer for the last 6 h, after which the cells were embedded in Epon resin. Subsequently, the cells were cut into 55-nm sections and stained with uranyl acetate and lead citrate using the Reichert Ultracut S Ultramicrotome (Leica Microsystems) and FEI Vitrobot Mark IV (Thermo Scientific), respectively. The cell sections were observed using the 200 kV transmission electron microscope FEI Tecnai G2-F20 (Thermo Scientific).

TRIM13 [2] = test: Autophagy flux assay of TRIM13-flag with bafilomycin A1; type: cell-based, human; details: HeLa TRIM13-flag, 2.5 μM 4 h, with or without bafilomycin A1 200 nM 6 h; FIG. 11M
Procedure: FIG. 11M illustrates the Western blotting results of HeLa cells transfected with TRIM13-flag or negative control empty vector (EV), treated with YOK1104 (2.5 μM, 4 h), and treated with or without bafilomycin A1 (200 nM, 6 h),
as §1

TRIM13-p62 complex = biological target: T1, TRIM13-p62 complex (Homo sapiens, UniProt Q13501); test: Co-IP with autophagy flux analysis using TRIM13 pulldown; type: cell-based; details: HEK293T p62-myc + TRIM13-flag, YOK1104 2.5 μM 4 h, HCQ 10 μM 24 h; FIG. 5K
T1 construct: PCR amplification of a full-length human p62 cDNA fragment; expressed in transfected cells; host or cells: HEK293T
Procedure: FIG. 4I illustrates the Co-IP assay results in HEK293T cells treated with HCQ (10 μM, 24 h), tannic acid (30 μM, 24 h), or both, and co-transfected (24 h) with p62-myc and TRIM13-flag,
FIG. 5K illustrates the Co-IP assay results in HEK293T cells co-transfected with p62-myc and TRIM13-flag (24 h) or transfected with negative control empty vector (EV) and treated with HCQ (10 μM, 24 h), YOK1104 (2.5 μM, 4 h), or both, and
To test protein interaction, co-immunoprecipitation assays were performed. For exogenous co-IP, HEK293T cells were transfected with recombinant p62, BiP, TRIM13, reticulophagy regulator 1 (FAM134B), reticulon 3 (RTN3) or ATZ (Z variant E342K) using Lipofectamine 2000. The cell pellets were scraped and pelleted by centrifugation, resuspended and lysed in an immunoprecipitation buffer (IP buffer) [50 mM Tris-HCl pH 7.5, 150 mM NaCl, 0.5% Triton X-100, 1 mM EDTA, 1 mM phenylmethylsulfonyl fluoride (PMSF; Roche) and protease inhibitor cocktail (Sigma)] on a rotor at 4° C. for 30 min. Next, the supernatant and remaining pellets were passed through a 26-gauge 1 mL syringe 15 times and centrifuged at 13,000 g at 4° C. and collected for the supernatant, to which normal mouse IgG (Santa Cruz) and Protein A/G-Plus agarose beads (Santa Cruz) were added to preclear the lysate on a rotor at 4° C. overnight. The cell lysate was then incubated with M2 FLAG-affinity Gel agarose beads (Sigma) on a rotor at 4° C. for 3 h. The gel beads were washed four times with IP buffer, resuspended in 2× Laemmli Sample Buffer, separated by SDS-PAGE and analyzed by immunoblotting with specified antibodies.

HeLa cells [3] = test: ER expansion visualization by KDEL immunostaining; type: cell-based, human; details: tannic acid 30 μM 24 h with YTK1105 2.5 μM 5 h or rapamycin 2 μM 18 h, FIGS. 5H, 5I
Procedure: FIG. 5H illustrates the immunostaining results of KDEL signals in HeLa cells treated with or without tannic acid (30 μM, 24 h) and with YTK1105 (2.5 μM, 5 h) or rapamycin (2 μM, 18 h) (scale bar, 10 μm),
To observe cellular localization of proteins, cells were cultured on cover slips coated with poly-L-lysine (Sigma). The cells were fixed with 4% paraformaldehyde in PBS (pH 7.4) for 15 min at room temperature and washed three times with PBS for 5 min. The cells were permeabilized with 0.5% Triton X-100 in PBS solution for 15 min and washed three times with PBS for 5 min. The cells were blocked with 2% BSA in PBS solution for 1 h at room temperature. After blocking, the cells were incubated overnight at 4° C. with a primary antibody diluted in 2% BSA/PBS solution. […] Confocal images were taken by a laser scanning confocal microscope 510 Meta (Zeiss) and analyzed by Zeiss LSM Image Browser (ver. 4.2.0.121).
Using confocal microscopy of cells analyzed by immunocytochemistry, ER expansion was visualized by considered when KDEL- or calnexin-labelled ER occupied more than 80% of cell area. Furthermore, the ER area was calculated by ImageJ (NIH, Bethesda, v1.52) and the background threshold was manually defined and set for all images. The ER area was calculated and marked from the total cell area as a fraction after borders of each cell were set.

HeLa cells [4] = test: Western blotting of ER stress and apoptosis in tannic acid-treated cells; type: cell-based, human; details: tannic acid 30 μM 24 h, YTK1105 5 μM 9 h, HCQ 10 μM 24 h, FIG. 5G
Procedure: FIG. 5G illustrates the Western blotting analysis results of HeLa cells treated with HCQ (10 μM, 24 h), YTK1105 (5 μM, 9 h), or both in the presence or absence of tannic acid (30 μM, 24 h),
as §1

T1 sequence (Q13501 whole entry, the tested form may be a part): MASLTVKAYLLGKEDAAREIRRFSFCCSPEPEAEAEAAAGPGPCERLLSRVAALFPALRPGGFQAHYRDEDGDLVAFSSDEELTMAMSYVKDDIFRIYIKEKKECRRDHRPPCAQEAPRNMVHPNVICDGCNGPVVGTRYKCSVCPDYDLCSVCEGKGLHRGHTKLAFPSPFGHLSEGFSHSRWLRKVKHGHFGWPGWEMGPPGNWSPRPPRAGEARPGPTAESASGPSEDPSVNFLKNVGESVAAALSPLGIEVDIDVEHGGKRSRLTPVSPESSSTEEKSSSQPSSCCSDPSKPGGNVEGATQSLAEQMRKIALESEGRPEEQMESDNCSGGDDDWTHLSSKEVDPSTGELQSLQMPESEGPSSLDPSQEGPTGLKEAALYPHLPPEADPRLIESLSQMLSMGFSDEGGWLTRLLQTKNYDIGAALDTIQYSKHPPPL
T1 sequence (O60858 whole entry partner, the tested form may be a part): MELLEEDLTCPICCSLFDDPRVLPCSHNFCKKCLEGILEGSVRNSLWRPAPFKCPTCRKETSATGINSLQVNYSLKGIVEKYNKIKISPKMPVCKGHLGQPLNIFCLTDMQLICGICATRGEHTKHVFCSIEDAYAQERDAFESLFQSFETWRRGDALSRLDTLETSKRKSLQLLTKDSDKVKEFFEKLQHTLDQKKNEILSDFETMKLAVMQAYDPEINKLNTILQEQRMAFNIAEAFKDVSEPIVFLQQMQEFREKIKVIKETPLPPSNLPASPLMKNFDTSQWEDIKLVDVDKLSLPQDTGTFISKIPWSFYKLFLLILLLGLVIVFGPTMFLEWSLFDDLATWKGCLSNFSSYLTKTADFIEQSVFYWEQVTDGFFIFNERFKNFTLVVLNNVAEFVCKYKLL

SMILES	degradation of BiP, PDI and TRIM13 following up-modulation by proteotoxic ER stress (BiP, PDI, TRIM13)	degradation of oligomeric vs monomeric species of TRIM13 (TRIM13 [1])	delivery of ER compartments to autolysosomes; autophagosomes and autolysosomes by transmission electron microscopy (HEK293T cells)	autophagic degradation of TRIM13 (TRIM13 [2])	autophagic degradation of the TRIM13-p62 complex (TRIM13-p62 complex)	ER morphology (swelling), KDEL signals (HeLa cells [3])	rescue from ER stress and apoptosis (HeLa cells [4])
CC(C)NC[C@@H](O)COc1ccc(OCc2ccccc2)c(OCc2ccccc2)c1 [YOK1104, (R)-1-(3,4-bis(benzyloxy)phenoxy)-3-(isopropylamino)propan-2-ol]	readily facilitated the degradation of BiP and PDI as well as TRIM13	selectively induced the degradation of oligomeric species but not that of monomeric species of TRIM13	readily exhibited an abundance of autophagosomes and autolysosomes; also recorded: displayed the accumulation of ER fragments within their interior	drove TRIM13 to autophagic degradation	enhanced autophagic degradation of the TRIM13-p62 complex	–	–
Cl.OCCNCc1ccc(OCc2ccccc2)c(OCc2ccccc2)c1 [YTK1105, 2-((3,4-bis(benzyloxy)benzyl)amino)ethan-1-ol hydrochloride]	–	–	–	–	–	readily restored	rescued tannic acid-treated cells from ER stress and apoptosis in an autophagy-dependent manner
